# Key:
# RhoB GTPase = biological target: T1, RhoB GTPase (Homo sapiens, UniProt P62745); assay: Biolayer interferometry of RhoB binding to BTN3A1 (CD277) intracellular domains; settings: for kd (1/s) / kd(1/Ms) / Kd: BLI, 1:1 binding model; for Kd: RhoB immobilized on Ni-NTA biosensor, cHDMAPP at 1:1 where named; for RhoB binding to recombinant CD277 intracellular domain constructs: without phosphoantigen
# T1 construct: The full length RhoB protein was cloned into the pET 28a vector; thrombin cleavage site (C); made in house; host or cells: Escherichia coli BL21
# Protocol: To determine whether CD277 exists as a homodimer when expressed in a cellular context, and to study RhoB-CD277 interactions at even higher resolution, close interactions by utilizing fluorescence resonance energy transfer (FRET) were examined. Flow cytometry FRET measurements were performed on ABP-sensitive HEK 293 cells, by either overexpressing FRET compatible fusion proteins or labeling endogenous proteins with antibodies coupled to FRET-compatible fluorochromes. […] Biolayer Interferometry (BLI) was used to formally define a possible docking site for RhoB on the intracellular domain of CD277.
# The interactions between RhoB and BTN3A1 full-length intracellular domain (BFI) or BTN3A1 B30.2 domain were measured using Biolayer interferometry (BLItz, FortéBio). The BLI buffer used in baseline equilibration and the dissociation step was prepared with 10 mM Hepes pH7.2, 150 mM NaCl, 0.02% azide, 5 mM MgCl2, 4 mM BME. RhoB, at a concentration of 2 mg/ml, was immobilized on the Ni-NTA biosensor hydrated with the BLI buffer using the basic kinetics method with the following parameters: 30 s for baseline, 300 s for association and 300 s for dissociation. The RhoB-mounted biosensor was then blocked by 1 mg/ml BSA and equilibrated with the BLI buffer using a similar method with the following parameters: 30 s for baseline, 120 s for association and 120 s for dissociation. The buffer run served as a reference for the subsequent experiments. […] The ratio between cHDMAPP and BFI or B30.2 domain was kept at 1:1 for these measurements. The rate and affinity constants for binding interactions were analyzed by Biaevulation (Biacore Life Sciences). The data was truncated to 180 s and the ka and kd were fitted simultaneously using 1:1 binding with drift baseline model.
# CD277 [1] = assay: FRAP of CD277-emGFP membrane mobility in HEK 293 cells; assay type: cell-based; settings: 293 HEK cells; for CD277 membrane mobility (immobile fraction, FRAP): single agent
# Protocol: FRAP analysis was performed as previously described (Harly et al., 2012, Sandstrom et al., 2014). In brief, HEK293FT cells expressing either EmGFP-fused CD277 were laid on m-slides (Ibidi) and analyzed using a Nikon A1 RS confocal microscope (60×NA 1.40 oil immersion objective). Selected rectangular areas were photobleached for 500 ms by using full power of laser intensity (>90% of loss of fluorescence). Images were collected every 5 s, before (30 s) and after (120 s) bleaching using low laser intensity. Images were analyzed with Metamorph 7.5 (Molecular Devices, Universal Imaging) and NIS (Nikon) imaging software. The resulting curves were fitted using one-phase exponential equations.
# EBV-LCL 93 cells = assay: IFNγ by Vγ9Vδ2 TCR+ T cells against Rho-modulator pretreated EBV-LCL 93; assay type: cell-based; settings: target cell pretreatment with Rho activator, in combination with pamidronate or IPP
# Protocol: (§1) The impact of RhoB GTPase activity on Vγ9Vδ2 TCR+ T cell activation was assessed by […] different tumor cell lines with either the Rho GTPase activator calpeptin or inhibitor C3 transferase. […] To specify that enzymatic activity of RhoB regulates tumor cell recognition by Vγ9Vδ2 TCR+ T cells, we transfected HEK 293 cells with wildtype or dominant negative form corresponding to the GDP-bound state (RhoB-DN), or with the constitutively active form corresponding to the GTP-bound form (RhoB-CA) of RhoB (Kamon et al., 2006) and used them as target cells for Vγ9Vδ2 TCR+ T cells (FIG. 4E).
# (§2) Alternatively, Vγ9Vδ2 TCR-transduced T cells and target cells were cocultured as above in round-bottom 96-well plates, and IFNγ levels in supernatants were measured by ELISA. Where indicated, target cells were pretreated with pamidronate (100 μM), IPP (15 μM), FTI (10 μM), GGTI (50 μM), calpeptin (2 μg/ml) or C3 transferase (20 μg/ml) prior to coincubation. For testing stimulation of WT1 αβTCR-transduced T cells, the HLA-A2+ cell lines EBV-LCL 48 and MZ1851RC were pulsed with 10 μM WT1126−134 peptide.
# CD277 and F-actin = assay: Colocalization of CD277 and F-actin in HEK 293 cells; assay type: cell-based
# Protocol: To determine colocalization between BTN3 molecules and the actin cytoskeleton, HEK 293 cells were grown onto poly-L-lysin-coated coverslips and pretreated with either calpeptin (2 μg/ml) or C3 transferase (20 μg/ml) prior to treating samples with pamidronate Cells were fixed, permeabilized and BTN3 and F-actin were stained with DyLight 680-conjugated BTN3 antibody (clone BT3.1, Novus Biologicals) and Fluorescein-coupled phalloidin (Sigma), respectively. The correlation coefficient between BTN3 and F-actin signal was determined as a measure of colocalization using Volocity software.
# LCL 48 cells = assay: IFNγ by Vγ9Vδ2 TCR+ T cells against Rho-modulator pretreated EBV-LCL 48; assay type: cell-based; settings: target cell pretreatment with Rho inhibitor, in combination with pamidronate or IPP
# Protocol: as §1, §2
# CD277 [2] = assay: Flow cytometry FRET between BODIPY FL-stained membrane and anti-CD277 mAbs (CD277 conformational change), HEK 293 cells; assay type: cell-based; settings: with ABP
# Protocol: Conformational change of BTN3 molecule was determined similarly as described in ([…] et al., 2001). Cells were labeled with 5 ug/ml BODIPY-FL DPHE (donor) (Life Technologies) for 10 minutes on ice and then 10 minutes at 37 C, then washed extensively with ice-cold PBS. Cells were subsequently labeled with mouse anti-CD277 mAbs (either clone #20.1 or #103.2) and Alexa594-conjugated Goat anti-Mouse Fab fragments (Jackson ImmunoResearch). After washing, cells were resuspended in ice cold PBS and measured immediately using a FACS Canto-II flowcytometer (BD). FRET efficiency was calculated from the fractional decrease of the donor fluorescence in the presence of the acceptor.
# T1 sequence (O00481 272-513 partner limits assumed): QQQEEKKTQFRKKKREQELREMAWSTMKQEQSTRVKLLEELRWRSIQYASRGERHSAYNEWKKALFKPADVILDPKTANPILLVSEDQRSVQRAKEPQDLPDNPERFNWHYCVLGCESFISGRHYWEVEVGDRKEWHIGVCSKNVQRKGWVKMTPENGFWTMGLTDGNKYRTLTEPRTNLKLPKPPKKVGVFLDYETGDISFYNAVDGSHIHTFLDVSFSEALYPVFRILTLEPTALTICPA
# T1 sequence (P62745 1-192 limits assumed): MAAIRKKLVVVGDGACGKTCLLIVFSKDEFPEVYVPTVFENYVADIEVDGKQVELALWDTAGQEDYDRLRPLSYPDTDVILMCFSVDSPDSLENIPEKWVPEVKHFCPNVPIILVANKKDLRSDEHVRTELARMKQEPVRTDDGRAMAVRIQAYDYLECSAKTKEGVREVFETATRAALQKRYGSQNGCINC
Compound,kd (1/s) (RhoB GTPase),kd(1/Ms) (RhoB GTPase),Kd (RhoB GTPase),RhoB binding to recombinant CD277 intracellular domain constructs (RhoB GTPase),"CD277 membrane mobility (immobile fraction, FRAP) (CD277 [1])",also measured
"C/C(=C\CCP(=O)(O)OP(=O)(O)O)CO [cHDMAPP, (2E)-1-hydroxy-2-methylpent-2-enyl-pyrophosphonate]",–,–,–,–,–,RhoB binding to BFI in the presence of soluble phosphoantigen (RhoB GTPase; phosphoantigen 1:1 with BFI): almost completely abolished
RhoB-B30.2: interaction of RhoB with recombinant CD277 B30.2 domain lacking the N terminal connector region,0.206 s⁻¹,2020 M⁻¹ s⁻¹,102 µM,significantly reduced,–,–
CCCC[C@@H](C=O)NC(=O)[C@H](CC(C)C)NC(=O)OCc1ccccc1 [calpeptin],–,–,–,–,induced immobilization of CD277 to similar levels as those of ABP treatment alone,recognition of EBV-LCL 93 cells by Vγ9Vδ2 TCR+ T cells (IFNγ) (EBV-LCL 93 cells): significantly sensitized; colocalization between CD277 and F-actin (CD277 and F-actin; single agent vs medium): reduced tantalization between CD277 and F-actin to comparable levels observed with ABP treatment
RhoB-BFI: interaction of RhoB GTPase with recombinant full length BTN3A1 intracellular domain (BFI),0.04351 s⁻¹,2200 M⁻¹ s⁻¹,19.7 µM,detected,–,–
C3 transferase,–,–,–,–,–,activation of Vγ9Vδ2 TCR+ T cells by LCL 48 cells (IFNγ) (LCL 48 cells): significantly reduced activation; effect on ABP-driven conformational changes of the CD277 homodimer (CD277 [2]): did not prevent; effect on ABP-induced immobilization of CD277 (CD277 [1]; together with zoledronate): counteracted this ABP-effect; effect on ABP-induced CD277-actin segregation (CD277 and F-actin; pretreatment before pamidronate): prevented ABP-induced CD277-actin segregation
"O=P(O)(O)C(O)(Cn1ccnc1)P(=O)(O)O [zoledronate, zoledronic acid monohydrate]",–,–,–,–,decreased CD277 membrane mobility,–

# From patent publication US12161669B2, “Compositions and methods for cell targeting therapies” (UMC UTRECHT HOLDING B.V., priority 2017, dated 2024)
